Data as given in patent publication US20250043299A1, “POINT MUTATIONS THAT BOOST AROMATIC AMINO ACID PRODUCTION AND CO2 ASSIMILATION IN PLANTS” (Wisconsin Alumni Research Foundation, priority 2021, published 2025).
Blank lines part the entries; values can stand above or below the compound they belong to.

Experiments:
[1] = target: T1, Arabidopsis thaliana DHS2 (AtDHS2), wild type (DHS2^WT), SEQ ID NO:2 (Arabidopsis thaliana, UniProt Q00218); conditions: reference 9; cited from earlier work
T1 construct: without the predicted plastid transit peptide (amino acid residues; 49-525, 34-507, and 52-527, respectively); made in house; host or cells: E. coli Rosetta-2
T1 sequence (Q00218 34-507): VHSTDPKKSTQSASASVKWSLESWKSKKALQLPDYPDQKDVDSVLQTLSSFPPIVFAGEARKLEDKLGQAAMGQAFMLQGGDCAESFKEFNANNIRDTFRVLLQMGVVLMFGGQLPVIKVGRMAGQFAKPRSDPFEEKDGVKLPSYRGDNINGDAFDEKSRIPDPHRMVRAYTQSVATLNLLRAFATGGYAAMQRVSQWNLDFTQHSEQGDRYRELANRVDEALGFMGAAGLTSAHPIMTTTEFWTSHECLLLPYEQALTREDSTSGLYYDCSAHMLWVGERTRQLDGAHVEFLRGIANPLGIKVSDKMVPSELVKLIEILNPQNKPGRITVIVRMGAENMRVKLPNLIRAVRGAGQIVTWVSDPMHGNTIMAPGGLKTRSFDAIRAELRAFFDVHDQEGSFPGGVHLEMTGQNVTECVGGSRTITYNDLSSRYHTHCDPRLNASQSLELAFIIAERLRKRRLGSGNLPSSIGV

[2] = target: T2, DHS2^A4 (Arabidopsis thaliana, UniProt Q00218, G222S); type: biochemical; conditions: effector up to 1 mM
T2 construct: without the predicted plastid transit peptide (amino acid residues; 49-525, 34-507, and 52-527, respectively); made in house; host or cells: E. coli
T2 sequence (Q00218 34-507 G222S): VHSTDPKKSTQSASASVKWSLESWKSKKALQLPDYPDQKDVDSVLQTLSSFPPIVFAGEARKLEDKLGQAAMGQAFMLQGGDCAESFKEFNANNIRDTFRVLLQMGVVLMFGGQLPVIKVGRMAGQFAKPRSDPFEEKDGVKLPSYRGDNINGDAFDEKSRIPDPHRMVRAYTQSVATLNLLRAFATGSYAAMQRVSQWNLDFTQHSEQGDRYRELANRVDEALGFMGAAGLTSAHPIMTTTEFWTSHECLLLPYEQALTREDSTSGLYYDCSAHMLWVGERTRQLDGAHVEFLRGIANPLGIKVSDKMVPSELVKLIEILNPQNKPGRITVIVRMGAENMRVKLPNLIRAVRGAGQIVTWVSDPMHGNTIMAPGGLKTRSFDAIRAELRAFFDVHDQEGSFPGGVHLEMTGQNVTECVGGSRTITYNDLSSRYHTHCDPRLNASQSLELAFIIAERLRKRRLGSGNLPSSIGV
Experimental: (§1) To generate recombinant DHS proteins the pET28a vectors carrying the A. thaliana DHS1 (AtDHS1), AtDHS2, or AtDHS3 WT sequence without the predicted plastid transit peptide (amino acid residues; 49-525, 34-507, and 52-527, respectively) were expressed in E. coli Rosetta-2 cells and purified using Ni-affinity chromatography, exactly as was conducted previously (9). To generate DHS proteins with individual sota mutations via site-directed mutagenesis, these pET28a plasmid templates were diluted by 500-fold, mixed with 0.04 U/μL Phusion DNA polymerase (Thermo Scientific), 0.2 mM deoxynucleoside triphosphates (dNTPs), 1× Phusion reaction buffer (Thermo Scientific), and 0.5 μM forward and reverse mutagenesis primers (Table 10). The PCR reaction was run using the following protocol: 98° C. for 30 s followed by 20 cycles of 10 s at 98° C., 20 s at 70° C., 4.5 min at 72° C. with a final extension at 72° C. for 10 min. The PCR products were purified using a QIAquick Gel Extraction Kit (QIAGEN), treated with FastDigest DpnI (Thermo Scientific) to digest methylated plasmid template DNA for 20 min at 37° C., and transformed into E. coli cells. The mutagenized pET28a plasmids were sequenced to confirm that no errors were introduced during the mutagenesis process.
(§2) The DHS enzyme assays were conducted using the colorimetric method that we recently described (9). Briefly, the enzyme solution (7.7 μl) containing 50 mM Hepes (pH 7.4) was preincubated with an effector molecule(s) at room temperature for 15 min. For assays using recombinant protein and enzyme fractions isolated from plant leaves, 0.01 to 0.1 μg and approximately 50 μg of proteins were used, respectively. After adding 0.5 μl of 0.1 M dithiothreitol, the samples were further incubated at room temperature for 15 min. During these incubations, the substrate solution containing 50 mM Hepes (pH 7.4), 2 mM MnCl2, 4 mM E4P, and 4 mM PEP at final concentration was preheated at 37° C. The enzyme reaction was started by adding 6.8 μl of the substrate solution, then incubated at 37° C. for 30 min, and terminated by adding 30 μl of 0.6 M trichloroacetic acid. After a brief centrifugation, 5 μl of 200 mM NaIO4 (sodium meta-periodate) in 9 N H3PO4 was added to oxidize the enzymatic product and to incubate at 25° C. for 20 min. To stop the oxidation reaction, 20 μl of 0.75 M NaAsO2 (sodium arsenite), which was dissolved in 0.5 M Na2SO4 and 0.05 M H2SO4, was added and immediately mixed. After 5 min of incubation at room temperature, one-third of the sample solution was transferred to a new tube to be mixed with 50 μl of 40 mM thiobarbituric acid and incubated at 99° C. for 15 min in a thermal cycler. The mixture was added to 600 μl of cyclohexanone in eight-strip solvent-resistant plastic tubes, mixed vigorously, and centrifuged at 4500 g for 3 min to separate water- and cyclohexanone-based layers for the extraction off the developed pink chromophore. The absorbance of the pink supernatant was read at 549 nm with the microplate reader (Infinite 200 PRO, TECAN) to calculate DAHP production with the molar extinction coefficient at 549 nm (ε=549 nm) of 4.5×10^4 M^−1 cm^−1. Reaction mixtures with boiled enzymes were run in parallel and used as negative controls to estimate the background signal.

[3] = target: T3, Arabidopsis thaliana DHS2 (SEQ ID NO:2) variant DHS2^A4 (sotaA4), G222S (Arabidopsis thaliana, UniProt Q00218, G222S); test: biochemical; type: biochemical; conditions: up to 1 mM Tyr, Trp (FIG. 2C); shikimate, arogenate, prephenate at 1 mM (FIG. 21A)
T3 construct: without the predicted plastid transit peptide (amino acid residues; 49-525, 34-507, and 52-527, respectively); made in house; host or cells: E. coli
T3 sequence (Q00218 34-507 G222S): as above
Experimental: as §1, §2

[4] = target: T4, DHS1^WT (Arabidopsis thaliana, UniProt P29976); conditions: AAAs, chorismate, caffeate: from Yokoyama et al., Plant Cell, 2021, cited from earlier work
T4 construct: without the predicted plastid transit peptide (amino acid residues; 49-525, 34-507, and 52-527, respectively); made in house; host or cells: E. coli Rosetta-2
T4 sequence (P29976 49-525): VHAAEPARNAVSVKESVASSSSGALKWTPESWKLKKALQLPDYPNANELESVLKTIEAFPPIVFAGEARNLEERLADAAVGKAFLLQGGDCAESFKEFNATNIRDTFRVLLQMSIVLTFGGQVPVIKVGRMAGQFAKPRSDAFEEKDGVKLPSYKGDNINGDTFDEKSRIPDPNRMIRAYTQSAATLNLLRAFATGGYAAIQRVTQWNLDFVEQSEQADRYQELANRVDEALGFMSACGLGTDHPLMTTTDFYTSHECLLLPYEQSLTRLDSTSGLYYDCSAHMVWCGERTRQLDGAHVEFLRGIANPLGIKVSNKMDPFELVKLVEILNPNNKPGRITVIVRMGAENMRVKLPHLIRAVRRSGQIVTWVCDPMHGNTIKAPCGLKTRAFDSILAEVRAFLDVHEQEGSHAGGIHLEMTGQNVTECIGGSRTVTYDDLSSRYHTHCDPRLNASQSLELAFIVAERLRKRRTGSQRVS

[5] = target: T5, DHS1^B4 (Arabidopsis thaliana, UniProt P29976, G244R); test: DHS enzyme assay, recombinant DHS1^B4; type: biochemical
T5 construct: without the predicted plastid transit peptide (amino acid residues; 49-525, 34-507, and 52-527, respectively); made in house; host or cells: E. coli
T5 sequence (P29976 49-525 G244R): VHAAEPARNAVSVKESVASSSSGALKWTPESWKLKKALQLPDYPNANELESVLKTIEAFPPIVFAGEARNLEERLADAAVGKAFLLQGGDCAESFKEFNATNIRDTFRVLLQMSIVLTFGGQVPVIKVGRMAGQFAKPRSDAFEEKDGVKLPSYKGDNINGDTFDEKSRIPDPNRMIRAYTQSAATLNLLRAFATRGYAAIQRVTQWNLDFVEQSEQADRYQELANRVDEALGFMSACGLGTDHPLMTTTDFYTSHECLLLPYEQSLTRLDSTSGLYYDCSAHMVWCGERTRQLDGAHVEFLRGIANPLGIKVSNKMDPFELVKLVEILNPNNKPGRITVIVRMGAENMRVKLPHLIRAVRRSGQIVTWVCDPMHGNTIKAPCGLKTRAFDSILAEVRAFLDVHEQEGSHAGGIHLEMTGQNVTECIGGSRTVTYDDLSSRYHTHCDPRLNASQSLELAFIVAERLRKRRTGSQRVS
Experimental: as §1, §2

[6] = target: T6, Arabidopsis thaliana DHS1 (SEQ ID NO:1) variant DHS1^B4 (sotaB4), G244R (Arabidopsis thaliana, UniProt P29976, G244R); test: DHS enzyme assay with effector, DHS1 sotaB4; type: biochemical
T6 construct: without the predicted plastid transit peptide (amino acid residues; 49-525, 34-507, and 52-527, respectively); made in house; host or cells: E. coli
T6 sequence (P29976 49-525 G244R): as above
Experimental: as §1, §2

[7] = target: T7, DHS2^WT (Arabidopsis thaliana, UniProt Q00218); test: DHS enzyme assay, recombinant DHS2^WT; type: biochemical; conditions: effector at 1 mM
T7 construct: without the predicted plastid transit peptide (amino acid residues; 49-525, 34-507, and 52-527, respectively); made in house; host or cells: E. coli Rosetta-2
T7 sequence (Q00218 34-507): as the sequence (Q00218 34-507) above
Experimental: as §1, §2

[8] = target: T2, DHS2^A4; test: Differential scanning fluorimetry (DSF) protein-ligand affinity analysis, DHS2^A4; type: binding; conditions: ligand at 1 mM
Experimental: (§3) To examine the impact of the sota mutations on the interaction between DHS and AAA effectors (FIG. 22), a differential scanning fluorimetry (DSF) analysis (48) was conducted using the recombinant DHS2^WT and DHS2^A4 proteins. […] The fluorescence signal was monitored during the stepwise increase in temperature (1° C. per minute from 25° C. to 95° C.). The Tm was calculated by nonlinear regression analysis using the Boltzmann sigmoidal equation (48).

[9] = target: T7, DHS2^WT; test: Differential scanning fluorimetry (DSF) protein-ligand affinity analysis, DHS2^WT; type: binding; conditions: ligand at 1 mM
Experimental: as §3

[10] = target: T8, DHS2^F1 (Arabidopsis thaliana, UniProt Q00218, L136F); test: DHS enzyme assay, recombinant DHS2^F1; type: biochemical; conditions: effector up to 1 mM
T8 construct: without the predicted plastid transit peptide (amino acid residues; 49-525, 34-507, and 52-527, respectively); made in house; host or cells: E. coli
T8 sequence (Q00218 34-507 L136F): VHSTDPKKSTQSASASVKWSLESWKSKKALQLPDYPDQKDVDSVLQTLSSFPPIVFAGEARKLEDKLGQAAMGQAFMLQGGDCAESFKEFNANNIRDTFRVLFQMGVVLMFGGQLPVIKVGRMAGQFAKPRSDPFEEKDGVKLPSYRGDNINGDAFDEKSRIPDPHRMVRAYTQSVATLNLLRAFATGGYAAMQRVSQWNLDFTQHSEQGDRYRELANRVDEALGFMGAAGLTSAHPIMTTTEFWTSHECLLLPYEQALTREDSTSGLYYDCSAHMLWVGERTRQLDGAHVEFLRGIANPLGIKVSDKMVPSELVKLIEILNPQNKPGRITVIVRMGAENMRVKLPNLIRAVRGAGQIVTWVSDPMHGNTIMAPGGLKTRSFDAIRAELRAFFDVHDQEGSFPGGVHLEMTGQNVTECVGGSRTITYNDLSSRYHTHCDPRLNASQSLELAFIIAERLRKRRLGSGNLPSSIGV
Experimental: as §1, §2

[11] = target: DHS3^H1; test: DHS enzyme assay, recombinant DHS3^H1; type: biochemical, Arabidopsis thaliana
Experimental: as §1, with “To” for “To generate recombinant DHS proteins the pET28a vectors carrying the A. thaliana DHS1 (AtDHS1), AtDHS2, or AtDHS3 WT sequence without the predicted plastid transit peptide (amino acid residues; 49-525, 34-507, and 52-527, respectively) were expressed in E. coli Rosetta-2 cells and purified using Ni-affinity chromatography, exactly as was conducted previously (9). To”
(§4) The DHS enzyme assays were conducted using the colorimetric method that we recently described (9). Briefly, the enzyme solution (7.7 μl) containing 50 mM Hepes (pH 7.4) was preincubated with an effector molecule(s) at room temperature for 15 min. For assays using recombinant protein and enzyme fractions isolated from plant leaves, 0.01 to 0.1 μg and approximately 50 μg of proteins were used, respectively. After adding 0.5 μl of 0.1 M dithiothreitol, the samples were further incubated at room temperature for 15 min. During these incubations, the substrate solution containing 50 mM Hepes (pH 7.4), 2 mM MnCl2, 4 mM E4P, and 4 mM PEP at final concentration was preheated at 37° C. The enzyme reaction was started by adding 6.8 μl of the substrate solution, then incubated at 37° C. for 30 min, and terminated by adding 30 μl of 0.6 M trichloroacetic acid. After a brief centrifugation, 5 μl of 200 mM NaIO4 (sodium meta-periodate) in 9 N H3PO4 was added to oxidize the enzymatic product and to incubate at 25° C. for 20 min. To stop the oxidation reaction, 20 μl of 0.75 M NaAsO2 (sodium arsenite), which was dissolved in 0.5 M Na2SO4 and 0.05 M H2SO4, was added and immediately mixed. […]

[12] = target: T9, DHS2^A11 (Arabidopsis thaliana, UniProt Q00218, A224T); test: DHS enzyme assay, recombinant DHS2^A11; type: biochemical; conditions: effector up to 1 mM
T9 construct: without the predicted plastid transit peptide (amino acid residues; 49-525, 34-507, and 52-527, respectively); made in house; host or cells: E. coli
T9 sequence (Q00218 34-507 A224T): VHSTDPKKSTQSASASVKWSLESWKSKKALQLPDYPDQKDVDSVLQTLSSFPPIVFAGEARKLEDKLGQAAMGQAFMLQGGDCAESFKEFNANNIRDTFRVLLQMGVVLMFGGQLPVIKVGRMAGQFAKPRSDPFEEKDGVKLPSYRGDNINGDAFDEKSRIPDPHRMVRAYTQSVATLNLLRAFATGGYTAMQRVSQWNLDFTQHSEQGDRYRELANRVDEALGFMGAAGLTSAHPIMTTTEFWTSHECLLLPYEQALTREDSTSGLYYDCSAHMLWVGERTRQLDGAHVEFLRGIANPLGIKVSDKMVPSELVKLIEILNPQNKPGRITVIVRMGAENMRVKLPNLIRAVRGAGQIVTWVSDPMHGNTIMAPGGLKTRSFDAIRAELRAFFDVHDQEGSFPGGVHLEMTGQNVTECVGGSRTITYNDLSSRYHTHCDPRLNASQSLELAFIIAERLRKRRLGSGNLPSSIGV
Experimental: as §1, §2

[13] = target: T3, Arabidopsis thaliana DHS2 (SEQ ID NO:2) variant DHS2^A4 (sotaA4), G222S; test: Differential scanning fluorimetry protein-ligand affinity analysis, DHS2 sotaA4; type: binding; conditions: ligand at 1 mM
Experimental: (A) Simplified pathway map of AAAs and AAA-derived metabolites used in the effector screening. […] Data are means±SEM (n=3 independent assays).
as §3

[14] = system: DHS3^WT; conditions: AAAs: from Yokoyama et al., Plant Cell, 2021; cited from earlier work
[15] = target: DHS3^G1; test: DHS enzyme assay, recombinant DHS3^G1; type: biochemical, Arabidopsis thaliana
Experimental: as §1, with “To” for “To generate recombinant DHS proteins the pET28a vectors carrying the A. thaliana DHS1 (AtDHS1), AtDHS2, or AtDHS3 WT sequence without the predicted plastid transit peptide (amino acid residues; 49-525, 34-507, and 52-527, respectively) were expressed in E. coli Rosetta-2 cells and purified using Ni-affinity chromatography, exactly as was conducted previously (9). To”
as §4

SMILES: O=C(O)C(=O)CC1(C(=O)O)C=CC(O)C=C1 (stereo not shown) [prephenate]
- inhibition of DHS2 [1]: slightly inhibit DHS2
- inhibition of DHS2^A4 activity [2]: still inhibited
- inhibition of DHS2^A4 [3]: still inhibited

SMILES: O=C(O)C1=C[C@@H](O)[C@@H](O)[C@H](O)C1 [shikimate]
- inhibition of DHS2 [1]: slightly inhibit DHS2
- inhibition of DHS2^A4 activity [2]: still inhibited
- inhibition of DHS2^A4 [3]: still inhibited

SMILES: O=C(O)/C=C/c1ccc(O)c(O)c1 [Caffeate]
- IC50 ([4]; read-out: IC50 of effector molecule on DHS1^WT): 108 µM
- inhibition of DHS1^B4 activity [5]: still strongly inhibited
- IC50 ([5]; read-out: IC50 of effector molecule on DHS1^B4): 65.2 µM
- IC50 [6]: 65.2 µM

- inhibition at 1000 µM [7]: ~30%
SMILES: NCCc1ccc(O)cc1 [tyramine]

SMILES: N[C@@H](Cc1ccccc1)C(=O)O [Phe, phenylalanine]
- effect on melting temperature (Tm) / binding of DHS2^A4 [8]: no impact on the Tm
- effect on melting temperature (Tm) of DHS2^WT [9]: no impact on the Tm

SMILES: N[C@@H](Cc1ccc(O)cc1)C(=O)O [Tyr, tyrosine]
- inhibition of DHS2^F1 activity [10]: not inhibited
- IC50 of effector molecule on DHS3^H1 [11]: Not inhibited
- inhibition of DHS2^A11 activity [12]: not inhibited
- binding (DSF) [13]: still binds Tyr and Trp
- IC50 of effector molecule on DHS1^WT [4]: Not inhibited
- inhibition of DHS2 [1]: inhibit Arabidopsis DHS2
- IC50 of effector molecule on DHS3^WT [14]: Not inhibited
- IC50 of effector molecule on DHS1^B4 ([5]; recombinant enzyme): Not inhibited
- IC50 of effector molecule on DHS3^G1 [15]: Not inhibited

SMILES: N[C@@H](CC1(C(=O)O)C=CC(O)C=C1)C(=O)O (stereo partly shown) [arogenate]
- inhibition of DHS2 [1]: slightly inhibit DHS2
- inhibition of DHS2^A4 activity [2]: still inhibited
- inhibition of DHS2^A4 [3]: still inhibited
